Experiment [1] addresses recombinant human 5-HT6 receptors (Homo sapiens (Human), UniProt P50406). Put plainly: Competitive radioligand binding ([3H] Lysergic acid diethylamide) to serotonin 5-HT6 receptors, HeLa cell membranes. Particulars: for pIC50: 1.5 nM [3H] Lysergic acid diethylamide, 120 min at 37° C. The protocol:
Screening of the disclosed compounds for their potential ability to interact with serotonin 5-HT6 receptors was carried out by the method of radioligand binding. For this purpose membrane species were prepared from HeLa cells expressing recombinant human 5-HT6 receptors, by means of cells homogenization in glass homogenizer with subsequent separation of plasmatic membranes from cell nucli, mitochondria's and cell wreckages by differential centrifugation. Determination of tested compounds binding to 5-HT6 receptors was carried out according to the method described in [Monsma F J Jr, Shen Y, Ward R P, Hamblin M W and Sibley D R, Cloning and expression of a novel serotonin receptor with high affinity for tricyclic psychotropic drugs. Mol. Pharmacol. 43:320-327, 1993]. […] After the incubation the samples were filtered in vacuo on glass-microfiber filters G/F (Millipor, USA), filters were washed three times with cold solution of the medium and radioactivity was measured by scintillation counter MicroBeta 340 (PerkinElmer, USA). […] Methiothepin was used as a positive control. Binding of the tested compounds with the receptor was determined by their ability to displace the radioligand and was expressed in percent of displacement. The percent of displacement was calculated according to the following equation:
[formula] wherein: TA—was overall radioactivity in the presence of radioligand only, CA—was radioactivity in the presence of radioligand and tested compound and NA—was radioactivity in the presence of radioligand and Serotonin (5 μM).

The test system of experiment [2] is mice. Put plainly: Passive Avoidance of mice in the Shuttle Chamber, memory disturbed by MK-801. It counts as in vivo. To be noted: MK-801 0.1 mg/kg, injected 30 minutes before training.

pIC50, pKi: −log10 of the molar value. Counter-ions that a name gives are not always drawn.

The values that follow come from patent publication US8569318B2, “Tetrahydro-pyrazolo[1,5-a]pyrido-pyrimidines as antagonists of serotonin 5-HT6 receptors, methods for the production and use thereof” (priority 2008, dated 2013).

recombinant human 5-HT6 receptors, sequence (P50406 whole entry): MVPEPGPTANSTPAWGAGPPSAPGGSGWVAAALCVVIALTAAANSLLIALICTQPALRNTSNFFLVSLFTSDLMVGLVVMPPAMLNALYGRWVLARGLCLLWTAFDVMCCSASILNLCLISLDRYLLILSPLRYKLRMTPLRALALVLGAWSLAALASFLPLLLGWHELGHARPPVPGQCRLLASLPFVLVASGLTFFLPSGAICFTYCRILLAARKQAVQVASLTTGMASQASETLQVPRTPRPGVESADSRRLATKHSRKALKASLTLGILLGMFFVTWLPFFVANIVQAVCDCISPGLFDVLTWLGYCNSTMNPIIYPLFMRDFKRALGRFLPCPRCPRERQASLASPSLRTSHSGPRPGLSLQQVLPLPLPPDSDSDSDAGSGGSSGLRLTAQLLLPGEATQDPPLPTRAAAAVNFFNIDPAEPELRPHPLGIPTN

Turning to `Cc1nn2c3c(cnc2c1S(=O)(=O)c1ccccc1)CNCC3` [1.1(1)], the pIC50 – broadly, −log10 of the IC50, conventionally taken in molar units – in experiment [1] is 8.34.

`Cc1nn2c3c(cnc2c1S(=O)(=O)c1ccccc1)CN(C)CC3` [1.1(3).HCl]: the “nootropic effect (enhancement of memory disturbed by MK-801)” value in experiment [2] is reported as “ability of active ingredient 1.1(3).HCl to produce nootropic effect”.

Consider `CSc1nn2cc3c(nc2c1S(=O)(=O)c1ccccc1)CCN(C)C3` [2.2(2)], for which the pIC50 in experiment [1] was 6.10. Moreover, in experiment [1] (Ki=IC50/(1+[L]/KD)), the pKi (in general, the Ki on a negative log10 scale, so that one unit is a factor of ten) is 6.43.

As to `CSc1nn2cc3c(nc2c1S(=O)(=O)c1ccc(F)cc1)CCN(C)C3` [2.2(3)], the pIC50 in experiment [1] was less than 6.00.
